# Assay results published in patent US9492471B2, “Methods of treating a disease or disorder associated with Bruton'S Tyrosine Kinase” (Celgene Avilomics Research, Inc., priority 2013, dated 2016).
# Read-outs that look alike come from different tables or passages of the source.
# Tests used:
# Test in all cases: HotSpot kinase profiling
# Format in all cases: biochemical
# CAMK2a = target: T1, CAMK2a (Homo sapiens, UniProt Q9UQM7)
# T1 construct: purchased Reaction Biology Corp
# Method in brief: (§1)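 Percent inhibition, averaged when run more than once and referenced to a DMSO negative control, came from a radioactive filter-binding readout on P81 paper. Reactions of kinase with freshly made substrate and cofactors ran for 2 h at room temperature.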
# CK1epsilon = target: T2, CK1epsilon (Homo sapiens, UniProt P49674)
# T2 construct: purchased Reaction Biology Corp
# T2 sequence (P49674 whole entry): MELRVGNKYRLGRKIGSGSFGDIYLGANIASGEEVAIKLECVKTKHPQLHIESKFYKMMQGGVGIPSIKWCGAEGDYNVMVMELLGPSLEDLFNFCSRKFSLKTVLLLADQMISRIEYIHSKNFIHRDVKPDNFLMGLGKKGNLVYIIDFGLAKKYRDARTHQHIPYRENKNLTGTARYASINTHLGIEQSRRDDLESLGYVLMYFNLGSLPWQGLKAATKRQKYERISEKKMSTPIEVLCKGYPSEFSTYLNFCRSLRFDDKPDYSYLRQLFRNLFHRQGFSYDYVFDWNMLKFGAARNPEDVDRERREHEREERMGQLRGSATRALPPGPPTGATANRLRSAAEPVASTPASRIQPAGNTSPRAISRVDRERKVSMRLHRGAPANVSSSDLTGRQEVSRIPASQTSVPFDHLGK
# Method in brief: as §1
# NLK = target: T3, NLK (Homo sapiens, UniProt Q9UBE8)
# T3 construct: purchased Reaction Biology Corp
# T3 sequence (Q9UBE8 1-527): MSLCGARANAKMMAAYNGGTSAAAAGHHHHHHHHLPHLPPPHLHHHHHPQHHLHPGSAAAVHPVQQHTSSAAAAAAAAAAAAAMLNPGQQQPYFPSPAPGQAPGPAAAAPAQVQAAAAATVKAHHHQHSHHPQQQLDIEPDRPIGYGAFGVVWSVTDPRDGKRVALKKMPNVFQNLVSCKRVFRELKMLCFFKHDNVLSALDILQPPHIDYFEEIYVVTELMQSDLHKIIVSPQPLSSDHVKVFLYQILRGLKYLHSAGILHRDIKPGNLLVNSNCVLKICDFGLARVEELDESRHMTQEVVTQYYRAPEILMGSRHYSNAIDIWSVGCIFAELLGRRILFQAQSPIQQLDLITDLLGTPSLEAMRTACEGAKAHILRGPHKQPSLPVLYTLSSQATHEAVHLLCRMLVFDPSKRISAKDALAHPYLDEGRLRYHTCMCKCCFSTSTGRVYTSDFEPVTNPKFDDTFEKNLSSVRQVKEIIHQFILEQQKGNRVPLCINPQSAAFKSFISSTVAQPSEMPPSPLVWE
# Method in brief: as §1
# ALK3/BMPR1A = target: T4, ALK3/BMPR1A (Homo sapiens, UniProt P36894)
# T4 construct: purchased Reaction Biology Corp
# T4 sequence (P36894 24-532): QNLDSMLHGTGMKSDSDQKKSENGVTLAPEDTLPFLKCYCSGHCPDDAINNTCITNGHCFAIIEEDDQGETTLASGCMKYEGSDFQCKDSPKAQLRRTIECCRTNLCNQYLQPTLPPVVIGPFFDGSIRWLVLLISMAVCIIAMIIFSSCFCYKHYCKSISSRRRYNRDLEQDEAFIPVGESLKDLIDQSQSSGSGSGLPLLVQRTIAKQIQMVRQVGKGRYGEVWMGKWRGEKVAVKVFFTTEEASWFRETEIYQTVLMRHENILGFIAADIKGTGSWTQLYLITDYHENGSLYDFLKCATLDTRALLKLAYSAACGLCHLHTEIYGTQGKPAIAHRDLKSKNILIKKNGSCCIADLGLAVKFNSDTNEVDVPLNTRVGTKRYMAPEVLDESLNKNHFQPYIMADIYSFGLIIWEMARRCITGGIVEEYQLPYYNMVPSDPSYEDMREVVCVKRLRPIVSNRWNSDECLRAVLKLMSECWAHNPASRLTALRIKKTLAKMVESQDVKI
# Method in brief: as §1
# ERK7/MAPK15 = target: T5, ERK7/MAPK15 (Homo sapiens, UniProt Q8TD08)
# T5 construct: purchased Reaction Biology Corp
# T5 sequence (Q8TD08 1-544): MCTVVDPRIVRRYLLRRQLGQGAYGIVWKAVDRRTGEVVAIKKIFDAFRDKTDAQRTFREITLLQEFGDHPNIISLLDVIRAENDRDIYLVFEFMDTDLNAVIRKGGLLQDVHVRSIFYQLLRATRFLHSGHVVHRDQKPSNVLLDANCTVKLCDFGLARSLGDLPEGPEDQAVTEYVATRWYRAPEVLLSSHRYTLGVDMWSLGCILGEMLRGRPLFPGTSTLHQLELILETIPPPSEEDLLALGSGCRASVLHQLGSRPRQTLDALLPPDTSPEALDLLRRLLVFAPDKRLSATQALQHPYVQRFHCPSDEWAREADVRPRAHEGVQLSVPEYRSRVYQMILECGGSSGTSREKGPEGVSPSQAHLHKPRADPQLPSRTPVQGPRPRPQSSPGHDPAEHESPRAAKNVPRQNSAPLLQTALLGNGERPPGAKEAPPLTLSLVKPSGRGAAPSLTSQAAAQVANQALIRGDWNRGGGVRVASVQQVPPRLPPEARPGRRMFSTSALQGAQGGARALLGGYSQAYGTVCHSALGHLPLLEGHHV
# Method in brief: as §1
# IKKb/IKBKB = target: T6, IKKb/IKBKB (Homo sapiens, UniProt O14920)
# T6 construct: purchased Reaction Biology Corp
# T6 sequence (O14920 1-756): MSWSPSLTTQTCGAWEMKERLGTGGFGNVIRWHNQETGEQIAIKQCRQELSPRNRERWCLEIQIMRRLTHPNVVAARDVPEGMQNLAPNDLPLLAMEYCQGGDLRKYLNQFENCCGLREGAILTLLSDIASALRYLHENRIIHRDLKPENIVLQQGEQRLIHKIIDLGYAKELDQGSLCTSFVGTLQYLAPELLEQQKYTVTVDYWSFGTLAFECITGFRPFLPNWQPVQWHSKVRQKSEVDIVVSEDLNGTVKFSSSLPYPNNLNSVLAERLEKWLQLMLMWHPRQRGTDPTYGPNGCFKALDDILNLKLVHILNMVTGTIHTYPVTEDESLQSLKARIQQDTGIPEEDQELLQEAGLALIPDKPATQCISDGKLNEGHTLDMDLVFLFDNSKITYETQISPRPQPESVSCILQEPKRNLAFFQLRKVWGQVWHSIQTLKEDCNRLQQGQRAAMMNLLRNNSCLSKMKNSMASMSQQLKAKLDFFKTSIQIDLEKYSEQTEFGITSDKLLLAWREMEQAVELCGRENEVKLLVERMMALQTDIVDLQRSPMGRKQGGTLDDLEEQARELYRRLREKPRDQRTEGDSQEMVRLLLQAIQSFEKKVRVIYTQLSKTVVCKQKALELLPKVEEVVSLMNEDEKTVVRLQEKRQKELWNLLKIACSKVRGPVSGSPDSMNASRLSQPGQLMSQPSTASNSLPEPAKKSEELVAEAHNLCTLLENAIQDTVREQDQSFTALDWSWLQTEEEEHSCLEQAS
# Method in brief: as §1
# CHK2 = target: T7, CHK2 (Homo sapiens, UniProt O96017)
# T7 construct: purchased Reaction Biology Corp
# T7 sequence (O96017 whole entry): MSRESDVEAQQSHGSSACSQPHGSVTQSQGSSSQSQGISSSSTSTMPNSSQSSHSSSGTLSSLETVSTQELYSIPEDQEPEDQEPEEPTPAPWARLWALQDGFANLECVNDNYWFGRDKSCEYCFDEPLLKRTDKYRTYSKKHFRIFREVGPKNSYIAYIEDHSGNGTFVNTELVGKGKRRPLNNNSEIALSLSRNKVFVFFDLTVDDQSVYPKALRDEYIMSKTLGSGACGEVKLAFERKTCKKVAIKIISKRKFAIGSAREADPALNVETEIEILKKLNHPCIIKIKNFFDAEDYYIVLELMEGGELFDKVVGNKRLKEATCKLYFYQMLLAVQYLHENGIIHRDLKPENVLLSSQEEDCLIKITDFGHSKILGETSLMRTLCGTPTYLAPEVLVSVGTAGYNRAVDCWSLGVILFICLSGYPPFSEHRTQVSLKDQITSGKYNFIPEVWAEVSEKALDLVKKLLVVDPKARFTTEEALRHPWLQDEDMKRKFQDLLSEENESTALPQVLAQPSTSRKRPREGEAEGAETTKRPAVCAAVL
# Method in brief: as §1
# BLK = target: T8, BLK (Homo sapiens, UniProt P51451)
# T8 construct: purchased Reaction Biology Corp
# T8 sequence (P51451 whole entry): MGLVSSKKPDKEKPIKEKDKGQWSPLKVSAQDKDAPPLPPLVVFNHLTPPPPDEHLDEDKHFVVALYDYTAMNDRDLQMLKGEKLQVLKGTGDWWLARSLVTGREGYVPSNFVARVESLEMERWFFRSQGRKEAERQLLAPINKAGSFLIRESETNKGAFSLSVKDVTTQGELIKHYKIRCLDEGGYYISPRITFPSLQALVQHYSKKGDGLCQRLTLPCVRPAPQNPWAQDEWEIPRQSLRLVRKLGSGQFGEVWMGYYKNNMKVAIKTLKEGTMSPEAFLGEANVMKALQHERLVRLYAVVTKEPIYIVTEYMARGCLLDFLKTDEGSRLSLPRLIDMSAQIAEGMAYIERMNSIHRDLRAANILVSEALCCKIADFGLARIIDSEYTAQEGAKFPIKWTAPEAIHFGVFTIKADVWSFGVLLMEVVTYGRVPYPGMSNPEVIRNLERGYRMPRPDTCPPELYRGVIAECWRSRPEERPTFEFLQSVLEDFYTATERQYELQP
# Method in brief: as §1
# [1] = read-out: % Enzyme Activity (relative to DMSO controls) Run 1
# [2] = read-out: % Enzyme Activity (relative to DMSO controls) Run 2
# T1 sequence (Q9UQM7 whole entry): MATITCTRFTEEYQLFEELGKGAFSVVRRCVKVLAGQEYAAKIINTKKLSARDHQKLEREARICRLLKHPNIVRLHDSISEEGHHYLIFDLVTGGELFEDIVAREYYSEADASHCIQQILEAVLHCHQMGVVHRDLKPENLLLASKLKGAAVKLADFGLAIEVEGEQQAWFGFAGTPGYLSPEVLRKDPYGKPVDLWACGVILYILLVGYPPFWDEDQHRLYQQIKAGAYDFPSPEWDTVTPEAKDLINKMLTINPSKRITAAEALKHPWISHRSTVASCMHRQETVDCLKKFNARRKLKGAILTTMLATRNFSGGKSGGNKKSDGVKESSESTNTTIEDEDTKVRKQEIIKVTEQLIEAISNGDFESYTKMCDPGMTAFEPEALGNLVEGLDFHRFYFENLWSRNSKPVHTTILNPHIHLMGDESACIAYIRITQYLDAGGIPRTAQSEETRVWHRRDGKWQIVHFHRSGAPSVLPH
smiles,measurement,setting,value
C=CC(=O)Nc1cccc(Nc2nc(Nc3ccc(OCCOC)c(F)c3)ncc2F)c1 [Compound 2],inhibition at 3 µM,CAMK2a,-9.6%
same,remaining activity at 3 µM,CAMK2a; [1],109%
same,remaining activity at 3 µM,CAMK2a; [2],110%
same,inhibition at 3 µM,CK1epsilon,-1.96%
same,remaining activity at 3 µM,CK1epsilon; [1],102%
same,remaining activity at 3 µM,CK1epsilon; [2],102%
same,inhibition at 3 µM,NLK,-1.29%
same,remaining activity at 3 µM,NLK; [1],99.6%
same,remaining activity at 3 µM,NLK; [2],103%
same,inhibition at 3 µM,ALK3/BMPR1A,-4.41%
same,remaining activity at 3 µM,ALK3/BMPR1A; [1],104%
same,remaining activity at 3 µM,ALK3/BMPR1A; [2],105%
same,inhibition at 3 µM,ERK7/MAPK15,35.1%
same,remaining activity at 3 µM,ERK7/MAPK15; [1],63.8%
same,remaining activity at 3 µM,ERK7/MAPK15; [2],66%
same,inhibition at 3 µM,IKKb/IKBKB,3.75%
same,remaining activity at 3 µM,IKKb/IKBKB; [1],95.4%
same,remaining activity at 3 µM,IKKb/IKBKB; [2],97.1%
same,inhibition at 3 µM,CHK2,74.4%
same,remaining activity at 3 µM,CHK2; [1],25.9%
same,remaining activity at 3 µM,CHK2; [2],25.3%
same,inhibition at 3 µM,BLK,93.7%
same,remaining activity at 3 µM,BLK; [1],6.3%
same,remaining activity at 3 µM,BLK; [2],6.37%
